# Results from patent publication US5304367A, “In vivo brain imaging agent and method for diagnosis of psychiatric disorders” (New York University, priority 1990, dated 1994).
# Where “and” joins values, the source holds several entries; their conditions need not be identical. Identical values can stand only once. Like-named read-outs stand apart in the source and are kept apart here.
# What was measured:
# [1] = target: T1, β2-receptors (Homo sapiens, UniProt P07550); assay: [^3 H]DHA saturation binding in prefrontal cortical homogenates, β2-receptors
# T1 construct: Crude membrane preparations were made from the homogenates; from tissue; host or cells: human post-mortem prefrontal cortex (grey matter), crude membranes
# Text: (§1) Following the characterization and localization of a group effect (such as, for example, age, sex or suicide) by autoradiography, samples from at least one involved region are dissected from the relevant blocks and homogenized for saturation binding studies using well known techniques.
# (§2) The brains were removed at autopsy and the right hemisphere sliced in the coronal plane. The slices, about 2 cm thick, were examined for signs of pathology and frozen in powdered dry ice, then removed for long-term storage at -80° C. Grey matter from the most frontal slice (prefrontal cortex) was dissected with a scalpel and homogenized. Crude membrane preparations were made from the homogenates, divided and stored frozen for saturation binding assays. The other slices were used for autoradiography. Eight concentrations of [^3 H]DHA (New England Nuclear, specific activity: 72 Ci/mmol), ranging from 0.1 to 4 nM were incubated with samples of the membrane preparations, with parallel incubates containing 10^-6 M propranolol to establish non-specific binding (Biegon et al., Life Sci. 32:2015-2022 ;(1983)); Enna et al., J. Neurochem. 28:233-236 (1983)). β-Receptor subtypes were distinguished by coincubation of the radioligand 10^-6 M concentrations of either zinterol, a […] blocker, or […] blocker, in 5 out of the 10 pairs included in this part of the study (Ecker et al., Int. Catecholamine Symp. Abstr. 6:52 (1987)). The affinity (Kd and maximal density (Bmax) of the receptors were derived from Scatchard analysis (Scatchard G., Ann. N.Y. Acad. Sci. 51:660-672 (1949)) of the binding data and protein was assayed by the method of Lowry et al.(Lowry et al., J. Biol. Chem. 193:265-275 (1951)).
# [2] = tested on: β2 receptor; assay: ^3 H-DHA saturation binding on homogenates of frontal superior gyrus, β2; set-up: species or system human; details: 3 brains, 0.1 μM zinterol or metoprolol for subtype differentiation
# Procedure: as §1
# (§3) Based on 3 brains, a total Bmax of 50-100 fm/mg protein was calculated, with the β1 receptor subtype accounting for the majority of the sites (Bmax: 40-60 fm/mg protein) and a smaller β2 receptor fraction (Bmax: 25-40 fm/mg protein). The Bmax values for the two subtypes added up to total specific binding in each individual brain, confirming the use of the two blocker concentrations for receptor subtype differentiation.
# [3] = tested on: β1 receptor subtype; assay: ^3 H-DHA saturation binding on homogenates of frontal superior gyrus, β1; set-up: species or system human; details: 3 brains, 0.1 μM zinterol or metoprolol for subtype differentiation
# Procedure: as §1, §3
# [4] = target: T2, β1-receptors (Homo sapiens, UniProt P08588); assay: [^3 H]DHA saturation binding in prefrontal cortical homogenates, β1-receptors
# T2 construct: Crude membrane preparations were made from the homogenates; from tissue; host or cells: human post-mortem prefrontal cortex (grey matter), crude membranes
# Text: as §1, §2
# [5] = tested on: βAR; assay: ^3 H-DHA saturation binding on homogenates of frontal superior gyrus, total; set-up: species or system human; details: 3 brains
# [6] = tested on: β-adrenergic receptor; assay: [^3 H]DHA saturation binding in prefrontal cortical homogenates from suicides and controls (Scatchard analysis); set-up: species or system human
# Text: as §1
# Fourteen suicide and 14 pair-matched control brains were collected over 3 years from the medical examiner's offices in New York City and Jaffa, ISRAEL. […] The results of the coroner's examination as well as the results of broad-spectrum toxicological tests performed by the forensic laboratory were made available within 8 weeks. Only drug-free and pathology-free brains were included. For each suicide brain, a control matched for sex and age group with a PMD under 48 hours was collected the same day or within a few days, so that the pairs are also matched for storage time. The brains from each pair were dissected or sectioned on the same day and receptors were labeled in the same experiment, by an experimenter blind to the identity of the samples.
# as §2
# The binding characteristics of βARs were studied in prefrontal cortical homogenates from 10 pairs. The region corresponds to Brodmann's areas 9 and 10.
# [7] = experimental animals; cited from earlier work
# [8] = tested on: βAR; assay: in vivo autoradiography of brain distribution and kinetics; set-up: species or system rat
# Procedure: In vivo autoradiography was been used to study brain distribution and kinetics of iodopindolol. Groups of rats (3 per treatment/time) were injected intravenously (i.v.) in the tail vein with 250 μCi/kg ^125 I-iodopindolol, either alone or 5 min after an intraperitoneal injection of the βAR antagonist (beta blocker) propranolol (5 mg/kg), to define nonspecific binding. Animals were sacrificed by decapitation 15, 30, 60 and 90 minutes post- injection and the brains quickly removed. The right hemisphere and a blood sample were used for direct counting while the left hemisphere was frozen immediately on dry ice and then sectioned sagittally. Sections were apposed to hyperfilm for one week.
# [9] = target: beta adrenergic receptors (βAR); details: βAR antagonist; Barovsky et al.; read-out: affinity; cited from earlier work
# [10] = tested on: β1; details: experimental animals; cited from earlier work
# [11] = tested on: serotonin receptors of the 5HT1D subtype; details: unlike most other βAR antagonists; cited from earlier work
# [12] = whole body distribution, mice, 2 μCi; type: in vivo, mouse; details: conclusion from whole body distribution studies
# Procedure: In a subsequent study, whole body distribution was examined in mice following tail vein injection of 2 μCi ^125 I-iodopindolol. Animals were sacrificed at various time points up to 22 hours post-injection. Percent injected dose (%ID) was determined in 11 organs, blood and urine. At one minute, lungs contained the highest %ID (17%), heart 3-4 %ID and brain 0.3%ID.
# [13] = tested on: serotonin receptors of the 5HT1B subtype; details: unlike most other βAR antagonists; cited from earlier work
# [14] = tested on: β2 receptors; assay: autoradiographic mapping of β2 receptors (iodopindolol in the presence of metoprolol); type: binding, human; details: FIG. 4
# Procedure: (§4) Slides holding tissue sections are incubated for about 70 min at approximately 25° C. with 0.15 nM ^125 I-iodopindolol (New England Nuclear, 2200 Ci/mmole) in 25 mM Tris buffer, pH 7.5, containing 150 mM NaCl. Nonspecific binding is determined in the presence of 1 μM propranolol (see Examples, below). Zinterol, a selective β2 blocker, or metoprolol, a selective β1 antagonist, are added to the incubation buffer at 0.1 μM to achieve selective labeling of the β1 and β2 receptor subtypes, respectively. The incubation is followed by three 20 min washes in the same ice cold buffer. Slides are then dipped in ice cold distilled water to remove buffer salts, dried on a 50° C. slide warmer and apposed to ^3 H-sensitive film (Amersham ^3 H-hyperfilm) for 48-96 hours. The film is coexposed to commercial iodine standards (available from Amersham, for example). Film is developed manually using standard developer and fixer such as those available from the Eastman-Kodak Company. […]
# (§5) Based on 3 brains, a total Bmax of 50-100 fm/mg protein was calculated, with the β1 receptor subtype accounting for the majority of the sites (Bmax: 40-60 fm/mg protein) and a smaller β2 receptor fraction (Bmax: 25-40 fm/mg protein). […]
# [15] = tested on: β2; details: experimental animals; cited from earlier work
# [16] = tested on: β1 receptors; assay: autoradiographic mapping of β1 receptors (iodopindolol in the presence of zinterol); type: binding, human; details: FIG. 3
# Procedure: as §4, §5
# T2 sequence (P08588 whole entry): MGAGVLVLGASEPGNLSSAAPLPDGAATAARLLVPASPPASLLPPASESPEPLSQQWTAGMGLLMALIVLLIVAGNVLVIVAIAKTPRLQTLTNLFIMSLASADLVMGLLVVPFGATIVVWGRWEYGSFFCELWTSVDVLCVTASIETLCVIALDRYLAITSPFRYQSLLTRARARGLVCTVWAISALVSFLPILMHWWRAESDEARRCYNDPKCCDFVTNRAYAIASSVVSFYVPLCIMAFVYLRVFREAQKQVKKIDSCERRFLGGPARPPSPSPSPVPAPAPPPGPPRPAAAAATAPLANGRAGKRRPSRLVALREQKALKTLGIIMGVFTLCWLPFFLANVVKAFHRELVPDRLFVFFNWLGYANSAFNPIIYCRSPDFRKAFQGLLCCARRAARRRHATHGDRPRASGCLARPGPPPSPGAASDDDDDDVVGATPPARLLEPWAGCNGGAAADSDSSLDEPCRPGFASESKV
# T1 sequence (P07550 whole entry, looked up): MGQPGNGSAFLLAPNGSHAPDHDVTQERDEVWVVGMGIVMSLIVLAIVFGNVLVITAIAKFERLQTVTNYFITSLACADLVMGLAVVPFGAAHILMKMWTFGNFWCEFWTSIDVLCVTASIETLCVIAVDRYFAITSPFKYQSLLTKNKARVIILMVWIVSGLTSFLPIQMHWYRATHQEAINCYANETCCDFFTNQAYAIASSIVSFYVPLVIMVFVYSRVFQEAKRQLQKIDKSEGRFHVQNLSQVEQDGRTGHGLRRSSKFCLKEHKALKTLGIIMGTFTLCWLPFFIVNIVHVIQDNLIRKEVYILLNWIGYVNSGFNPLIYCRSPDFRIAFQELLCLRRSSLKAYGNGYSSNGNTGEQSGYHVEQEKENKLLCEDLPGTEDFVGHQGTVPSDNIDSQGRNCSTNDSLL
smiles,measurement,setting,value
"CCCc1ccccc1OCC(O)CNC(C)C (stereo not drawn) [[^3 H]DHA, dihydroalprenolol]","Bmax, β2-receptors",[1]; control,28.0±4.0 fm/mg protein
same,Kd,[1]; control,1.1 ± 0.13 nM
same,"Bmax, β2-receptors","[1]; suicide, p=0.1",39.2±3.1 fm/mg protein
same,"Bmax, β2 receptor",[2],25-40 fm/mg protein
same,"Bmax, β1 receptor subtype",[3],40-60 fm/mg protein
same,"Bmax, β1-receptors","[4]; control, n=5",37.7±9.3 fm/mg protein
same,Kd,"[4]; control, n=5",2.2 ± 0.5 nM
same,Kd,"[4]; suicide, n=5",1.7 ± 0.3 nM
same,"Bmax, β1-receptors","[4]; suicide, n=5, P<0.015",50.3±9.4 fm/mg protein
same,total Bmax,[5],50-100 fm/mg protein
same,Bmax,"[6]; control, individual of matched pair, prefrontal cortex",65 fm/mg P and 92 fm/mg P and 44 fm/mg P and 31 fm/mg P and 86 fm/mg P and 55 fm/mg P and 78 fm/mg P and 36 fm/mg P and 32 fm/mg P and 53 fm/mg P
same,Kd,"[6]; control, individual of matched pair, prefrontal cortex, read-out: Kd",0.84 nM and 0.8 nM and 0.3 nM and 0.4 nM and 0.6 nM and 1.25 nM and 1.5 nM
same,"Bmax, mean","[6]; control, mean of 10, SEM 7.9",57.7 fm/mg P
same,change in receptor affinity (Kd),[6]; suicide vs control,no significant change in receptor affinity
same,Increases in binding (range),"[6]; suicide vs control, 9 of the 10 pairs",30% to 115%
same,Increases in binding (mean),"[6]; suicide vs control, P<0.0003",48%
same,Bmax,"[6]; suicide, individual of matched pair, prefrontal cortex",108 fm/mg P and 81 fm/mg P and 85 fm/mg P and 67 fm/mg P and 119 fm/mg P and 97 fm/mg P and 106 fm/mg P and 58 fm/mg P and 53 fm/mg P and 83 fm/mg P
same,Kd,"[6]; suicide, individual of matched pair, prefrontal cortex, read-out: Kd",0.98 nM and 0.9 nM and 1.5 nM and 1.2 nM and 1.4 nM and 1.1 nM and 1 nM and 0.4 nM and 0.8 nM
same,Kd,"[6]; suicide, mean of 10, SEM 0.1, read-out: Kd, mean",1 nM
same,"Bmax, mean","[6]; suicide, mean of 10, SEM 7.8, P < 0.0003",86.0 fm/mg P
CC(C)NCC(O)COc1cccc2[nH]cc(I)c12 (stereo not drawn) [iodopindolol],crossing of blood brain barrier,[7],crosses the blood brain barrier
same,difference between total and nonspecific binding to brains,"[8]; 15 and 30 minutes post-injection, 250 μCi/kg i.v., propranolol 5 mg/kg i.p.",very small difference
same,"brain binding of radiolabel, propranolol pre-injected","[8]; 60 and 90 minutes, propranolol 5 mg/kg i.p.",low and uniform brain binding of radiolabel
same,distribution of binding in the brain,"[8]; 60 and 90 minutes, without propranolol","high levels in frontal cortex, caudate, and cerebellum; moderate to low levels in various hippocampal structures and thalamic nuclei; low levels in brain stem and medulla"
same,difference between iodopindolol alone and propranolol-pretreated animals,"[8]; FIG. 5, 15 minutes post injection",no apparent difference
same,distribution of radioactivity,"[8]; FIG. 6, 60 minutes post injection","relatively high levels in external cortical layers, caudate and cerebellum and relatively low levels in hippocampus"
same,brain levels of bound radiolabel,[8]; between 60 and 90 minutes,do not decline appreciably between 60 and 90 minutes
same,specific labelling of βAR in the brain,[8]; one hour after injection,specifically labels βAR
same,Kd,[9],< 1 nM
same,labelling of βAR subtype β1 in vivo,[10],"labels both βAR subtypes, β1 and β2, in vivo"
same,"affinity for serotonin receptors, 5HT1D",[11],low affinity
same,brain uptake,[12],hindered by the blood brain barrier
same,"affinity for serotonin receptors, 5HT1B",[13],low affinity
same,distribution of β2 receptors,[14],"found in internal cortical layers and predominate in hippocampus, cerebellum and white matter"
same,labelling of βAR subtype β2 in vivo,[15],"labels both βAR subtypes, β1 and β2, in vivo"
same,distribution of β1 receptors,[16],predominate in the prefrontal cortical external layers and in basal ganglia
